Laboratory results taken from article PMC8688338 (Molecular microbiology, 2021).
Several values for one entry are separate records, joined by “and”; a condition that tells them apart may be missing. Equal values may be shown once. Read-outs that look alike come from different tables or passages of the source.

Assays:
T. vaginalis = details: cited from earlier work
[1] = test system: T. vaginalis nucleoside transporters, Thymidine (HA); experiment: Higher affinity [3H]-thymidine transport; assay type: cell-based, Trichomonas vaginalis; details: for EC50: single experiment
TvagENT3 = TvagENT3 (Trichomonas vaginalis, UniProt A2E5Q3); experiment: [3H]-cytidine uptake by T. brucei TbAT1-KO cells expressing TvagENT3; details: for inhibition of cytidine uptake: 0.5 µM [3H]-cytidine
[2] = test system: T. vaginalis nucleoside transporters, Cytidine (LA); experiment: Low affinity cytidine transport in T. vaginalis trophozoites; assay type: cell-based, Trichomonas vaginalis; details: Cytidine (LA); average and SEM
[3] = test system: T. vaginalis nucleoside transporters, Cytidine (HA); experiment: High affinity [3H]-cytidine transport in T. vaginalis trophozoites; assay type: cell-based, Trichomonas vaginalis; details: for Km: read-out: Km,app, […] [3H]-cytidine; for Ki: read-out: Ki,app, inhibition of […] [3H]-cytidine transport, 30 s
[4] = biological target: T. vaginalis nucleoside transporters, Uridine (HA); experiment: [3H]-uridine transport in T. vaginalis trophozoites; assay type: cell-based, Trichomonas vaginalis; details: for Km: read-out: Km,app, Uridine (HA)
[5] = biological target: T. vaginalis nucleoside transporters, Guanosine (HA); experiment: [3H]-guanosine transport in T. vaginalis trophozoites; assay type: cell-based, Trichomonas vaginalis; details: for Ki: read-out: Ki,app, inhibition of [3H]-guanosine transport, monophasic sigmoid curve
[6] = test system: T. vaginalis nucleoside transporters, Adenosine (LA); experiment: Low affinity adenosine transport; assay type: cell-based, Trichomonas vaginalis; details: for EC50 / Ki: inhibition of 20 µM [3H]-adenosine transport; for EC50: single experiment, Fig. 4; for Ki: read-out: Ki,app, average and SEM; for inhibition of transport: 20 µM [3H]-adenosine, highest tested concentration: guanosine 250 µM, adenine 1 mM, hypoxanthine 1 mM, uracil 10 mM
[7] = biological target: T. vaginalis nucleoside transporters, Adenosine (HA); experiment: High affinity [3H]-adenosine transport in T. vaginalis trophozoites; assay type: cell-based, Trichomonas vaginalis
[8] = test system: T. vaginalis trophozoites; experiment: Preliminary uptake of cytosine and thymine by T. vaginalis trophozoites; assay type: cell-based, Trichomonas vaginalis; details: preliminary experiments
[9] = biological target: low affinity pyrimidine nucleobase transporter of T. vaginalis; experiment: [3H]-uracil transport in T. vaginalis trophozoites; assay type: cell-based, Trichomonas vaginalis; details: for Ki: read-out: Ki,app
[10] = biological target: T. vaginalis nucleoside transporters, Inosine (LA); experiment: Low affinity [3H]-inosine transport in T. vaginalis trophozoites; assay type: cell-based, Trichomonas vaginalis; details: for Ki: read-out: Ki,app; for Km: read-out: Km,app
[11] = test system: T. vaginalis nucleoside transporters; details: ref Harris et al., 1988; cited from earlier work
[12] = test system: Nc1ccn([C@@H]2O[C@H](CO)[C@@H](O)[C@H]2O)c(=O)n1; experiment: cells, lysate or membranes
[13] = test system: T. vaginalis adenine transporter; experiment: [3H]-adenine transport in T. vaginalis trophozoites; assay type: cell-based, Trichomonas vaginalis; details: for Km: read-out: Km,app
TvagENT6 [14] = biological target: T1, TvagENT6 (Trichomonas vaginalis, UniProt A2EMT5)
TvagENT6 [15] = biological target: T1, TvagENT6; experiment: cell-based
[16] = read-out: Ki,app, inhibition of […] [3H]-adenosine transport, 30 s, monophasic, average and SEM
[17] = inhibition of 0.5 µM [3H]-uracil uptake
[18] = inhibition of 0.125 µM [3H]-thymidine uptake, Fig. 3C/D
[19] = inhibition of 1 µM [3H]-inosine uptake, average and SEM
[20] = single experiment, Fig. 6E inset
[21] = read-out: Ki,app, low affinity component

Nc1ncnc2c([C@@H]3O[C@H](CO)[C@@H](O)[C@H]3O)[nH]nc12 [formycin A]
antitrichomonal activity (T. vaginalis; ref Munagala and Wang, 2003): strong antitrichomonal activity

Nc1ccn([C@@H]2O[C@H](CO)[C@@H](O)[C@H]2O)c(=O)n1 [cytidine]
EC50 ([1]; read-out: EC50, higher affinity component, 0.125 µM [3H]-thymidine, 2-transporter plot, Fig. 3D): 2.86 µM | EC50 ([1]; read-out: EC50, lower affinity component, 0.125 µM [3H]-thymidine, 2-transporter plot, Fig. 3D): 322 µM | inhibition of cytidine uptake (TvagENT3; 1 mM unlabelled cytidine): strongly inhibited | Vmax (TvagENT3; single experiment, Fig. 10D inset): 0.042 pmol(10^7 cells)^−1s^−1 | Hill slope (TvagENT3; single experiment, Fig. 10D-F): −0.99 | Vmax [2]: 6.7 ± 1.8 pmol(10^7 cells)^−1s^−1 | inhibition of uptake ([3]; 0.25 µM [3H]-cytidine by 1 mM unlabelled cytidine): 97.0% | rate of transport ([3]; 0.25 µM [3H]-cytidine, no inhibitor): 0.026 ± 0.001 pmol(10^7 cells)^−1s^−1 | Vmax ([3]; Cytidine (HA), average and SEM): 0.83 ± 0.06 pmol(10^7 cells)^−1s^−1 | Km ([3]; Cytidine (HA), average and SEM): 7.19 ± 1.77 µM | Km ([3]; Cytidine (HA), average and SEM, listed as Cytidine): 7.2 ± 1.8 µM | Ki ([4]; read-out: Ki,app, inhibition of 0.5 µM [3H]-uridine transport, 30 s, average and SEM): 15.6 ± 2.3 µM | Ki ([5]; average and SEM): 18.6 ± 0.9 µM | EC50 [6]: 290 µM | Ki [6]: 116 ± 5 µM | Ki [7, 16]: 17.9 ± 4.4 µM

Cc1c[nH]c(=O)[nH]c1=O [thymine]
saturable uptake ([8]; thymine 0.5 µM over 120 s): not significant | Ki [9, 17]: 57 ± 8 µM

Nc1nc2c(ncn2[C@@H]2O[C@H](CO)[C@@H](O)[C@H]2O)c(=O)[nH]1 [guanosine]
EC50 [1, 18]: 51.2 µM | Hill slope (TvagENT3): −1.33 ± 0.09 | Ki (TvagENT3): 2.9 ± 0.14 µM | Ki ([3]; average and SEM): 16.7 ± 2.6 µM | rate of transport ([5]; 1 µM [3H]-guanosine): 0.22 ± 0.01 pmol(10^7 cells)^−1s^−1 | rate of transport in the presence of unlabelled permeant ([5]; 1 µM [3H]-guanosine + 0.25 mM unlabelled guanosine): 0.0030 ± 0.0004 pmol(10^7 cells)^−1s^−1 | reduction of uptake ([5]; 1 µM [3H]-guanosine by 250 µM guanosine): 98.6% | Vmax ([5]; Guanosine (HA), average and SEM): 0.91 ± 0.25 pmol(10^7 cells)^−1s^−1 | Km ([5]; read-out: Km,app, Guanosine (HA), average and SEM): 9 ± 0.6 µM | Ki [10, 19]: 7.41 ± 2.92 µM | Ki ([10]; inhibition of 1 µM [3H]-inosine uptake, average and SEM, listed as Guanosine): 7.4 ± 2.9 µM | Km [11]: 13.9 µM | inhibition of transport [6]: ≤ 50% | Ki [6]: > 250 µM | Ki [7, 16]: 12.2 ± 2.4 µM

TvagENT3 (Trichomonas vaginalis G3)
Km ([12]; other: 0.5 µM [3H]-cytidine, TvagENT3 in T. brucei TbAT1-KO, average): 10.2 ± 2.6 µM | Km ([12]; other: single experiment, Fig. 10D inset): 10.9 µM

Nc1ncnc2nc[nH]c12 [adenine]
inhibition of transport ([1]; 125 nM [3H]-thymidine, nucleobase at 1 mM): ≤ 50% | EC50 [13]: 0.35 µM | rate of transport ([13]; 50 nM [3H]-adenine): 0.00073 pmol(10^7 cells)^−1s^−1 | rate of transport in the presence of unlabelled permeant ([13]; 50 nM [3H]-adenine + 1 mM unlabelled adenine): 0.000097 pmol(10^7 cells)^−1s^−1 | inhibition of uptake ([13]; 50 nM [3H]-adenine by 1 mM unlabelled adenine): 86.7% | Vmax ([13]; 50 nM [3H]-adenine, average): 0.091 ± 0.027 pmol(10^7 cells)^−1s^−1 | rate of transport ([13]; 1 µM [3H]-adenine): 0.0164 pmol(10^7 cells)^−1s^−1 and 0.016 pmol(10^7 cells)^−1s^−1 | rate of transport in the presence of unlabelled permeant ([13]; 1 µM [3H]-adenine + 1 mM unlabelled adenine): 0.00429 pmol(10^7 cells)^−1s^−1 | inhibition of uptake ([13]; 1 µM [3H]-adenine by 1 mM unlabelled adenine): 73.8% | EC50 ([13]; inhibition of [3H]-adenine uptake, single experiment, Fig. 6E): 0.27 µM | EC50 ([13]; read-out: EC50, high affinity component, two transporter model, Fig. 6F): 0.23 µM | EC50 ([13]; read-out: EC50, lower affinity component, two transporter model, Fig. 6F, large degree of uncertainty): 17 µM | Km ([13]; 50 nM [3H]-adenine, high-affinity system, average): 0.41 ± 0.097 µM | Km [13, 20]: 0.23 µM | Vmax [13, 20]: 0.155 pmol(10^7 cells)^−1s^−1 | share of flux of high affinity component ([13]; two transporter model, Fig. 6F): 81% | inhibition of transporter (TvagENT6 [14]; adenine up to 1 mM): not significantly inhibited | inhibition of transport [6]: ≤ 50% | Ki [6]: > 1000 µM | Ki ([7]; read-out: Ki,app, inhibition of […] [3H]-adenosine transport): > 1000 µM | Ki [7, 16]: ~1000 µM

Nc1cc[nH]c(=O)n1 [cytosine]
saturable uptake ([8]; cytosine 0.25 µM over 120 s): not significant | Ki [9, 17]: 334 ± 73 µM

O=c1[nH]cnc2c1ncn2[C@@H]1O[C@H](CO)[C@@H](O)[C@H]1O [inosine]
Hill slope (TvagENT3): −1.08 ± 0.02 | inhibition of cytidine uptake (TvagENT3; inhibitor at 400 µM): completely | Hill slope (TvagENT3; single experiment, Fig. 10D-F): −1.07 | Ki (TvagENT6 [15]): 40 ± 9.5 µM | Ki [4, 21]: 231 ± 23 µM | rate of uptake ([10]; 1 µM [3H]-inosine): 0.0081 ± 0.0002 pmol(10^7 cells)^−1s^−1 | inhibition of uptake ([10]; 1 µM [3H]-inosine time course, 1 mM unlabelled nucleoside): 88% | rate of uptake ([10]; 1 µM [3H]-inosine, listed as Inosine): 0.0081 pmol(10^7 cells)^−1s^−1 | Vmax ([10]; Inosine (LA), average and SEM): 2.25 ± 0.37 pmol(10^7 cells)^−1s^−1 | EC50 ([10]; inhibition of 1 µM [3H]-inosine uptake, single experiment, Fig. 5B): 67.1 µM | Km ([10]; Inosine (LA), 1 µM [3H]-inosine, average and SEM): 196 ± 18 µM | Km ([10]; single experiment, Fig. 5B inset): 157 µM | Ki [7, 21]: 347 ± 127 µM | inhibition of uracil transport ([9]; uridine, thymidine up to 10 mM, adenosine, inosine up to 1 mM): unable to inhibit

Nc1ncnc2c1ncn2[C@@H]1O[C@H](CO)[C@@H](O)[C@@H]1O [adenine arabinoside]
antitrichomonal activity (T. vaginalis; ref Shokar et al., 2012): strong antitrichomonal activity

O=c1[nH]cc(F)c(=O)[nH]1 [5F-uracil]
Ki [9]: 265 ± 57 µM

Nc1ncnc2c1ncn2[C@@H]1O[C@H](CO)[C@@H](O)[C@@H]1F [2′-F,2′-deoxyarabinoadenosine]
antitrichomonal activity (T. vaginalis; ref Shokar et al., 2012): strong antitrichomonal activity

O=c1ccn([C@@H]2O[C@H](CO)[C@@H](O)[C@H]2O)c(=O)[nH]1 [uridine]
EC50 [1, 18]: 15.3 µM | Ki (TvagENT3): 11.3 ± 1.8 µM | inhibition of cytidine uptake (TvagENT3; inhibitor at 400 µM): completely | Hill slope (TvagENT3; inhibition of 0.5 µM [3H]-cytidine transport by TvagENT3, average): −0.98 ± 0.08 | Hill slope (TvagENT3; single experiment, Fig. 10D-F): −0.93 | Ki ([3]; average and SEM): 1.98 ± 0.5 µM | Ki ([3]; average and SEM, listed as Uridine): 2 ± 0.5 µM | Vmax (TvagENT6 [14]; [3H]-uridine in the presence of 250 µM uracil, average): 0.092 ± 0.021 pmol(10^7 cells)^−1s^−1 | Km ([4]; 30 s, average and SEM): 5.49 ± 1.8 µM | Km ([4]; 30 s, average and SEM, listed as Uridine): 5.5 ± 1.8 µM | Ki ([5]; average and SEM): 7.8 ± 1.3 µM | Ki [10, 19]: 3.6 ± 1.1 µM | Km [11]: 2.5 µM | EC50 [6]: 519 µM | Ki [6]: 376 ± 63 µM | Ki [7, 16]: 3.7 ± 1 µM

2’F,2’-deoxyadenosine
antitrichomonal activity (T. vaginalis; ref Shokar et al., 2012): strong antitrichomonal activity | Hill slope (TvagENT3): −0.97± 0.15 | Ki (TvagENT3; read-out: Ki,app): 1.11 ± 0.38 µM
